Results as given in patent US12404269B2, “Aminoquinazolinone and aminoisoquinolinone derivatives and application thereof” (ZHEJIANG UNIVERSITY, priority 2018, dated 2025).

Assays:
SW48 (PIK3CA mut) = assay: Tumor cell proliferation, CCK8 method, SW48; type: cell-based; conditions: Homo sapiens; CCK8, SW48; read-out: SW48 (PIK3CA mut) proliferation IC50
Protocol: (§1) The IC50 value was calculated using Graphpad Prism V5.0 software.

[1] = Pharmacokinetic determination in SD rats, tail vein injection; type: in vivo; conditions: rat, plasma; male SD rats, intravenous, 1 mg/kg
Protocol: Healthy SD rats weighing 200±20 g, male, were randomly divided into groups with 6 rats in each group, and were administered by tail vein injection at a dose of 1 mg/kg. The blood sampling time points for pharmacokinetic analysis: 5 min, 15 min, 30 min, 2 h, 4 h, 6 h, 8 h, 24 h, and 48 h after administration. About 0.3 mL of whole blood was collected via the orbit and placed in a heparinized test tube, centrifugalized at 6000 rpm for 10 min to separate the plasma, and store at −80° C. for testing. The plasma concentrations of the each compounds were detected with an Agilent liquid mass spectrometry (LC-MS/MS, Agilent Jet Stream Electrometric spray ion), and the relevant pharmacokinetic parameters were calculated using the WinNonLin 7.0 pharmacokinetic software non-compartment model method.

PI3Kδ = molecular target: T1, PI3Kδ (Homo sapiens, UniProt O00329); assay: PI3Kδ molecular activity test (ADP-GLO); type: biochemical; conditions: recombinant protein
T1 construct: purchased Carna Bioscience
Protocol: (§2) Instrument: ELISA Reader Envision™ (PerkinElmer, USA)
(§3) Materials: Human recombinant PI3K and PI3Kδ proteins, purchased from Carna Bioscience; ADP-GLO kit, purchased from Promega.
(§4) Take the PI3Kα Molecular Activity Test as an Example to Describe the Text Method of the PI3K Subtypes
(§5) PI3K-α recombinant protein and substrate ATP were diluted with kinase reaction buffer (50 mM Tris-HCl, pH 7.4, 2.1 mM DTT, 0.05% Tween-20, 10 mM MgCl2). […] The specific reaction system was 2% of DMSO, 0.8 ng/μL PI3K-α, and 100 μM ATP, the positive compound control groups and control wells were set, and there were 3 multiple-wells for each concentration of each sample. After incubating for 2 hours at room temperature, ADP-GLO Reagent and Kinase Detection Reagent were added respectively, and then Envision™ was used to detect the […] readings. The activity rate of the samples were calculated by the sample readings, and the calculation formula was: activity rate=(ODcompound−ODcontrol)/(ODDMSO−ODcontro) ×100%.

MCF7 (PIK3CA mut) = assay: Tumor cell proliferation, CCK8 method, MCF7; type: cell-based, human; conditions: Homo sapiens; CCK8, MCF7; read-out: MCF7 (PIK3CA mut) proliferation IC50
Protocol: as §1

PI3Kα = molecular target: T2, PI3Kα (Homo sapiens, UniProt P42336); assay: PI3Kα molecular activity test (ADP-GLO); type: biochemical; conditions: for Selectivity (PI3Kδ IC50/PI3KαIC50): PI3Kδ IC50/PI3Kα IC50; for IC50: recombinant protein, 100 μM ATP, 2 hours at room temperature
T2 construct: purchased Carna Bioscience
Protocol: as §2, §3, §4, §5

KPL4 (PIK3CA mut) = assay: Tumor cell proliferation, CCK8 method, KPL4; type: cell-based; conditions: CCK8, KPL4; read-out: KPL4 (PIK3CA mut) proliferation IC50
Protocol: as §1

ZR-75-1 (PTEN loss) = assay: Tumor cell proliferation, CCK8 method, ZR-75-1; type: cell-based; conditions: Homo sapiens; CCK8, ZR-75-1
Protocol: as §1

Kasumi-1 cell line = assay: In vivo efficacy, Kasumi-1 subcutaneous transplanted tumor in nude mice; conditions: 10 mg/Kg qd for 21 days, Kasumi-1 tumor, female nude mice, FIG. 1
Protocol: Female nude mice, weighing 20±3 g, were inoculated subcutaneously with Kasumi-1 cell line in their right axilla. The cell inoculation accounted for 1×10^7/mouse. After tumor formation, the diameter of the transplanted tumor was measured with a vernier caliper. When the tumor grown to 100-300 mm^3, the animals were divided into a model control group and administration groups with 6 […] in each group depending on body weight and tumor volume. The model control group was given the same amount of blank solvent. After grouping, the drugs were administered daily (qd) with a doge of 10 mg/Kg for 21 consecutive days. During the experiment, the diameter of the transplanted tumor and the weight of the mice were measured twice a week. The calculation formula of the tumor volume (TV) was: TV=½×a×b^2, where a and b represented length and width respectively. The relative tumor volume (RTV) was calculated from the measurement results, the calculation formula was: RTV=Vt/V0, where V0 was the tumor volume measured as grouping and administering (i.e. d0), and Vt was the tumor volume at each measurement. The evaluation index of anti-tumor activity was the relative tumor proliferation rate T/C(%), and the calculation formula was as follows: T/C(%)=(TRTV/CRTV)×100%, where TRTV: RTV of the treatment group; and CRTV: RTV of the negative control group.

T2 sequence (P42336 whole entry): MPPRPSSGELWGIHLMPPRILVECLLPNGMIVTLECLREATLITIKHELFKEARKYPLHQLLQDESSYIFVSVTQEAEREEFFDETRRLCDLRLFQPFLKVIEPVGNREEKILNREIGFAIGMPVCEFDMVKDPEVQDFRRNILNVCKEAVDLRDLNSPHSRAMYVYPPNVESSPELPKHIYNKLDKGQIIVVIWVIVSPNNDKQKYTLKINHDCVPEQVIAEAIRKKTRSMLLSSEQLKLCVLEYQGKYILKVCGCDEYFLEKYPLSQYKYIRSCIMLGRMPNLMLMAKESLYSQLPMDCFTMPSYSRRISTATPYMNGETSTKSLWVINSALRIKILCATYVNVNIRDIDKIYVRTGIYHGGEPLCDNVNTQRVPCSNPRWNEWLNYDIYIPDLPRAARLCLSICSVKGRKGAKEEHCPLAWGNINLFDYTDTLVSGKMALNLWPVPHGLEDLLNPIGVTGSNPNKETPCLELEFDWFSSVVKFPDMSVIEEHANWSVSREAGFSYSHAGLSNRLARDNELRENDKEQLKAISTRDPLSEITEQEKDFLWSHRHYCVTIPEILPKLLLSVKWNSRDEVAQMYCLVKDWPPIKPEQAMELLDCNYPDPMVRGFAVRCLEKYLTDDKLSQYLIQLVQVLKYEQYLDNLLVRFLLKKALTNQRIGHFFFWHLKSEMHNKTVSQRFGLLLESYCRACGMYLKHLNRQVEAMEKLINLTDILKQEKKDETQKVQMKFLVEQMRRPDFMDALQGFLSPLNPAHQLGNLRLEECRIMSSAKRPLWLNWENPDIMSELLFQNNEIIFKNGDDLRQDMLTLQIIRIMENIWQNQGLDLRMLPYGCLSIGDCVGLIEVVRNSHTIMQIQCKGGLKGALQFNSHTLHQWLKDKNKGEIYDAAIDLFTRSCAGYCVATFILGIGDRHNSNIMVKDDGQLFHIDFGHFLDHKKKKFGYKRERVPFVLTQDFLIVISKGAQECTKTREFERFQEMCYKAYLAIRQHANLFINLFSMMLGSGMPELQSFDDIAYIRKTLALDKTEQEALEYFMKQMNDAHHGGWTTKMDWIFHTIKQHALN
T2 sequence (P27986 whole entry partner): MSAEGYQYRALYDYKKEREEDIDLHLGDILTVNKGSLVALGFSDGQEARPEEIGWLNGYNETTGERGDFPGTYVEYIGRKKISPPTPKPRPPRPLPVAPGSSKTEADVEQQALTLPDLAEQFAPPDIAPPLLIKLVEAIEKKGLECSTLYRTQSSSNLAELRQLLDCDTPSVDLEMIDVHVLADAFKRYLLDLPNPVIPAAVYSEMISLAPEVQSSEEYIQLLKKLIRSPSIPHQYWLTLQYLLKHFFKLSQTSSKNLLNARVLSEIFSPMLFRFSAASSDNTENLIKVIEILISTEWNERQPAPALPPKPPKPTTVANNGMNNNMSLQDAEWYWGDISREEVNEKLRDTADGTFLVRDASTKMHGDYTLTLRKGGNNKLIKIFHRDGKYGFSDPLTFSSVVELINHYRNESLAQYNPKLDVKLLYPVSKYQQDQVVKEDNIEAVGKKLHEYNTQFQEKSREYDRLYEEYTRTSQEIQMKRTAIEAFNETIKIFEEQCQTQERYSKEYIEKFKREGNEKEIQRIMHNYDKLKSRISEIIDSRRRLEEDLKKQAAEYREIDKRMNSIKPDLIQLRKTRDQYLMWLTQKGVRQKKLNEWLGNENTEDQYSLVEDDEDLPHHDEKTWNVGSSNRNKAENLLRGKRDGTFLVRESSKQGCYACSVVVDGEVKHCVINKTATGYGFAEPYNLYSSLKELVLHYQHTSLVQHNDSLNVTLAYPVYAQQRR
T1 sequence (O00329 whole entry): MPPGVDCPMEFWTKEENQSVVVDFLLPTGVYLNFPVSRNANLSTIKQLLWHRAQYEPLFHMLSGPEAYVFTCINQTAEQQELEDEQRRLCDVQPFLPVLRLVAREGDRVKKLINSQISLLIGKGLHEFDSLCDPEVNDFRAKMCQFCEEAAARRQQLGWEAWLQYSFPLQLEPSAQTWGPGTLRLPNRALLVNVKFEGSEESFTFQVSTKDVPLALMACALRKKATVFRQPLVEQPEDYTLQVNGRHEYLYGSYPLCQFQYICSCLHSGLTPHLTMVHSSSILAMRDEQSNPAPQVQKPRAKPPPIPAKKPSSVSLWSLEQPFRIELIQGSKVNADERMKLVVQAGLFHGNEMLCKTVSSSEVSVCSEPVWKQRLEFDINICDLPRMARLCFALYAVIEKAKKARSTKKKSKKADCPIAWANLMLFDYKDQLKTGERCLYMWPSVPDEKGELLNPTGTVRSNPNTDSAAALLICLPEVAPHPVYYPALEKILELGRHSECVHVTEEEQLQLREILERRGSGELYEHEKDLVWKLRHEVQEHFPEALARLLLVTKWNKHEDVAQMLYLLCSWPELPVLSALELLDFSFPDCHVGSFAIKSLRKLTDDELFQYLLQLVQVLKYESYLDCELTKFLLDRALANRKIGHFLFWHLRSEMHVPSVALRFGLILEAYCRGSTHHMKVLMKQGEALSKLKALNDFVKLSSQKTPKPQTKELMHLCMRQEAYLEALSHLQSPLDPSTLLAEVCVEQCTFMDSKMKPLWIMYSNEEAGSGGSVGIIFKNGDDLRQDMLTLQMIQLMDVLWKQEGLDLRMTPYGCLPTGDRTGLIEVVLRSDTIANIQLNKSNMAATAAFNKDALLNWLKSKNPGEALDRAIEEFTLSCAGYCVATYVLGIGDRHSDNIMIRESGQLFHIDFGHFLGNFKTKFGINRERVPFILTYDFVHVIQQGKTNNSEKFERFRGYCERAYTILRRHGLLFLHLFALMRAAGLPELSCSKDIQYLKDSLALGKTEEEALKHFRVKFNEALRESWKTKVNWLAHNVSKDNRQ
T1 sequence (P27986 whole entry partner): as the sequence (P27986 whole entry partner) above

IC50 (SW48 (PIK3CA mut)) [nM] | Vd [1] [L/kg] | clearance [1] [mL/min/kg] | half-life [1] [h] | IC50 (PI3Kδ) [nM] | IC50 (MCF7 (PIK3CA mut)) [nM] | Selectivity (PI3Kδ IC50/PI3KαIC50) (PI3Kα) | IC50 (PI3Kα) [nM] | IC50 (KPL4 (PIK3CA mut)) [nM] | IC50 (ZR-75-1 (PTEN loss)) [nM] | Compound | tumor growth inhibitory activity (Kasumi-1 cell line)
< 20 | 4.2 | 33.3 | 5.3 | < 20 | < 20 | II (“II” represents 5-10 times) | < 20 | < 20 | < 20 | COc1c(OCCCN2CCOCC2)ccc2c(=O)n(C)c(NC(=O)c3cnc(N)nc3)nc12 [8a-1] | –
< 20 | 3.2 | 30 | 4.9 | < 20 | < 20 | III (“III” represents >10 times) | < 20 | < 20 | < 20 | COc1c(OCC(N)=O)ccc2c(=O)n(C)c(NC(=O)c3cnc(N)nc3)nc12 [8a-2] | –
20 to 200 | – | – | – | 20 to 200 | < 20 | II (“II” represents 5-10 times) | < 20 | 20 to 200 | 200 to 1000 | COc1c(OC[C@@H](O)CN2CCOCC2)ccc2c(=O)n(C)c(NC(=O)c3cnc(N)nc3)nc12 [8a-27, (S)-2-amino-N-(7-(2-hydroxy-3-morpholinopropoxy)-8-methoxy-3-methyl-4-oxo-3,4-dihydroquinazolin-2-yl) pyrimidine-5-carboxamide] | strong tumor growth inhibitory activity
20 to 200 | – | – | – | 20 to 200 | < 20 | II (“II” represents 5-10 times) | < 20 | 20 to 200 | 200 to 1000 | COc1c(OC[C@H](O)CN2CCOCC2)ccc2c(=O)n(C)c(NC(=O)c3cnc(N)nc3)nc12 [8a-28, (R)-2-amino-N-(7-(2-hydroxy-3-morpholinopropoxy)-8-methoxy-3-methyl-4-oxo-3,4-dihydroquinazolin-2-yl) pyrimidine-5-carboxamide] | strong tumor growth inhibitory activity
– | 2.9 | 41.7 | 6.7 | 20 to 200 | – | III (“III” represents >10 times) | < 20 | – | – | COc1c(OCCC(N)=O)ccc2c(=O)n(C)c(NC(=O)c3cnc(N)nc3)cc12 [8a′-3] | –
< 20 | 3.8 | 31.7 | 5.2 | – | < 20 | – | – | < 20 | < 20 | CCn1c(NC(=O)c2cnc(N)nc2)nc2c(OC)c(OCCCN3CCOCC3)ccc2c1=O [8b-1] | –
– | 3.9 | 26.7 | 4.2 | 20 to 200 | – | III (“III” represents >10 times) | < 20 | – | – | CCn1c(NC(=O)c2cnc(N)nc2)nc2c(OC)c(OCCCC(N)=O)ccc2c1=O [8b-9] | –
20 to 200 | – | – | – | 200 to 1000 | < 20 | II (“II” represents 5-10 times) | < 20 | 20 to 200 | 200 to 1000 | CCn1c(NC(=O)c2ccc(N)nc2)nc2c(OC)c(OCC(=O)NCCN3CCOCC3)ccc2c1=O [8b-48, 6-amino-N-(3-ethyl-8-methoxy-7-(2-((2-morpholinoethyl)amino)-2-oxoethoxy)-4-oxo-3,4-dihydroquinazolin-2-yl)nicotinamide] | –
20 to 200 | – | – | – | < 20 | < 20 | I (“I” represents <5 times) | < 20 | 20 to 200 | 20 to 200 | CCn1c(NC(=O)c2cnc(N)nc2)cc2c(OC)c(OCCCN3CCOCC3)ccc2c1=O [8b′-1] | –
20 to 200 | – | – | – | 20 to 200 | < 20 | III (“III” represents >10 times) | < 20 | 20 to 200 | 20 to 200 | CCn1c(NC(=O)c2cnc(N)nc2)cc2c(OC)c(OCC(N)=O)ccc2c1=O [8b′-2] | –
200 to 1000 | – | – | – | < 20 | 20 to 200 | I (“I” represents <5 times) | < 20 | 200 to 1000 | 200 to 1000 | Cn1c(NC(=O)c2cnc(N)nc2)nc2c3c(ccc2c1=O)OCCCCO3 [14a-4] | –
200 to 1000 | – | – | – | 20 to 200 | 20 to 200 | II (“II” represents 5-10 times) | < 20 | 200 to 1000 | 200 to 1000 | Cn1c(NC(=O)c2cnc(N)nc2)nc2c3c(ccc2c1=O)OCCCCCO3 [14a-5] | –
200 to 1000 | – | – | – | 20 to 200 | 20 to 200 | II (“II” represents 5-10 times) | < 20 | 200 to 1000 | 200 to 1000 | Cn1c(NC(=O)c2cnc(N)nc2)nc2c3c(ccc2c1=O)OCCCCCCO3 [14a-6] | –
200 to 1000 | – | – | – | 20 to 200 | 20 to 200 | II (“II” represents 5-10 times) | < 20 | 200 to 1000 | 200 to 1000 | Cn1c(NC(=O)c2cnc(N)nc2)nc2c3c(ccc2c1=O)OCCCCCCCO3 [14a-7] | –
20 to 200 | – | – | – | < 20 | < 20 | I (“I” represents <5 times) | < 20 | 20 to 200 | 20 to 200 | Cn1c(NC(=O)c2cnc(N)nc2)nc2c3c(ccc2c1=O)OCCCCCCCCO3 [14a-8] | –
– | 2.4 | 38.3 | 4.7 | – | – | – | – | – | – | CCn1c(NC(=O)c2cnc(N)nc2)nc2c3c(ccc2c1=O)OCCCO3 [14b-3] | –
200 to 1000 | – | – | – | 20 to 200 | < 20 | I (“I” represents <5 times) | 20 to 200 | 20 to 200 | 200 to 1000 | CCn1c(NC(=O)c2cnc(N)nc2)nc2c3c(ccc2c1=O)OCCCCO3 [14b-4] | –
200 to 1000 | – | – | – | < 20 | < 20 | I (“I” represents <5 times) | < 20 | 20 to 200 | 200 to 1000 | CCn1c(NC(=O)c2cnc(N)nc2)nc2c3c(ccc2c1=O)OCCCCCCCCO3 [14b-8] | –
200 to 1000 | – | – | – | 20 to 200 | < 20 | I (“I” represents <5 times) | 20 to 200 | 20 to 200 | 200 to 1000 | CCn1c(NC(=O)c2cnc(N)nc2)nc2c3c(ccc2c1=O)OCCOCCOCCOCCO3 [14b-11] | –
– | 3.9 | 65 | 4.2 | – | – | – | – | – | – | CCn1c(NC(=O)c2cnc(N)nc2)cc2c3c(ccc2c1=O)OCO3 [14b′-1] | –
20 to 200 | – | – | – | < 20 | < 20 | I (“I” represents <5 times) | < 20 | 20 to 200 | 20 to 200 | CCn1c(NC(=O)c2cnc(N)nc2)cc2c3c(ccc2c1=O)OCCOCCOCCO3 [14b′-6] | –
